Test system: HBV
Assay: HBV inhibition assay in HepAD38 cells (extracellular HBV DNA by direct qPCR)
Assay type: cell-based, Hepatitis B virus
Details: Hepatitis B virus, 96 hours, 8-point dose-response curve, read-out: HBV inh EC50

SMILES	EC50 [nM]
Cc1cc(NC(=O)c2c3c(cn2C)S(=O)(=O)NC2CN(C(=O)C4(C)CCCO4)CC2(C)CO3)ccc1F (stereo not drawn) [Example E88, cis-N-(4-fluoro-3-methylphenyl)-7,10a-dimethyl-2-(2-methyltetrahydrofuran-2-carbonyl)-2,3,3a,4,10,10a-hexahydro-1H,7H-dipyrrolo[3,4-b:3′,4′-f][1,4,5]oxathiazocine-8-carboxamide 5,5-dioxide]	< 1000
Cc1cc(NC(=O)c2c3c(cn2C)S(=O)(=O)NC2CN(C(=O)C4(C)COC4)CC2(C)CO3)ccc1F (stereo not drawn) [Example E89, cis-N-(4-fluoro-3-methylphenyl)-7,10a-dimethyl-2-(3-methyloxetane-3-carbonyl)-2,3,3a,4,10,10a-hexahydro-1H,7H-dipyrrolo[3,4-b:3′,4′-f][1,4,5]oxathiazocine-8-carboxamide 5,5-dioxide]	< 1000
Cc1cc(NC(=O)c2c3c(cn2C)S(=O)(=O)NC2CN(C(=O)C45CC(CO4)C5)CC2(C)CO3)ccc1F (stereo not drawn) [Example E90, cis-2-(2-oxabicyclo[2.1.1]hexane-1-carbonyl)-N-(4-fluoro-3-methylphenyl)-7,10a-dimethyl-2,3,3a,4,10,10a-hexahydro-1H,7H-dipyrrolo[3,4-b:3′,4′-f][1,4,5]oxathiazocine-8-carboxamide 5,5-dioxide]	< 1000
Cc1nnc(C(=O)N2C[C@H]3COc4c(cn(C)c4C(=O)Nc4cc(F)c(F)c(F)c4)S(=O)(=O)N[C@H]3C2)o1 [Example E97, (3aR,10aR)-7-methyl-2-(5-methyl-1,3,4-oxadiazole-2-carbonyl)-N-(3,4,5-trifluorophenyl)-2,3,3a,4,10,10a-hexahydro-1H,7H-dipyrrolo[3,4-b:3′,4′-f][1,4,5]oxathiazocine-8-carboxamide 5,5-dioxide]	< 1000
Cc1nnc(C(=O)N2C[C@H]3COc4c(cn(C)c4C(=O)Nc4ccc(F)c(C)c4)S(=O)(=O)N[C@H]3C2)o1 [Example E98, (3aR,10aR)—N-(4-fluoro-3-methylphenyl)-7-methyl-2-(5-methyl-1,3,4-oxadiazole-2-carbonyl)-2,3,3a,4,10,10a-hexahydro-1H,7H-dipyrrolo[3,4-b:3′,4′-f][1,4,5]oxathiazocine-8-carboxamide 5,5-dioxide]	< 1000
Cc1nnc(C(=O)N2C[C@H]3COc4c(cn(C)c4C(=O)Nc4ccc(F)c(Cl)c4)S(=O)(=O)N[C@H]3C2)o1 [Example E99, (3aR,10aR)—N-(3-chloro-4-fluorophenyl)-7-methyl-2-(5-methyl-1,3,4-oxadiazole-2-carbonyl)-2,3,3a,4,10,10a-hexahydro-1H,7H-dipyrrolo[3,4-b:3′,4′-f][1,4,5]oxathiazocine-8-carboxamide 5,5-dioxide]	< 1000
Cc1cc(NC(=O)c2c3c(cn2C)S(=O)(=O)N[C@H]2CN(C(=O)[C@H]4CCCO4)C[C@H]2CO3)ccc1F [Example E100, (3aR,10aR)—N-(4-fluoro-3-methylphenyl)-7-methyl-2-((R)-tetrahydrofuran-2-carbonyl)-2,3,3a,4,10,10a-hexahydro-1H,7H-dipyrrolo[3,4-b:3′,4′-f][1,4,5]oxathiazocine-8-carboxamide 5,5-dioxide]	< 1000
Cc1cc(NC(=O)c2c3c(cn2C)S(=O)(=O)N[C@H]2CN(C(=O)[C@@H]4CCCO4)C[C@H]2CO3)ccc1F [Example E101, (3aR,10aR)—N-(4-fluoro-3-methylphenyl)-7-methyl-2-((S)-tetrahydrofuran-2-carbonyl)-2,3,3a,4,10,10a-hexahydro-1H,7H-dipyrrolo[3,4-b:3′,4′-f][1,4,5]oxathiazocine-8-carboxamide 5,5-dioxide]	< 1000
Cn1cc2c(c1C(=O)Nc1cc(F)c(F)c(F)c1)OC[C@@H]1CN(C(=O)c3nnc(N)o3)C[C@@H]1NS2(=O)=O [Example E102, (3aR,10aR)-2-(5-amino-1,3,4-oxadiazole-2-carbonyl)-7-methyl-N-(3,4,5-trifluorophenyl)-2,3,3a,4,10,10a-hexahydro-1H,7H-dipyrrolo[3,4-b:3′,4′-f][1,4,5]oxathiazocine-8-carboxamide 5,5-dioxide]	< 1000
Cc1noc(C(=O)N2C[C@H]3COc4c(cn(C)c4C(=O)Nc4ccc(F)c(C)c4)S(=O)(=O)N[C@H]3C2)n1 [Example E103, (3aR,10aR)—N-(4-fluoro-3-methylphenyl)-7-methyl-2-(3-methyl-1,2,4-oxadiazole-5-carbonyl)-2,3,3a,4,10,10a-hexahydro-1H,7H-dipyrrolo[3,4-b:3′,4′-f][1,4,5]oxathiazocine-8-carboxamide 5,5-dioxide]	< 1000
Cc1cc(NC(=O)c2c3c(cn2C)S(=O)(=O)N[C@H]2CN(C(=O)c4cocn4)C[C@H]2CO3)ccc1F [Example E104, (3aR,10aR)—N-(4-fluoro-3-methylphenyl)-7-methyl-2-(oxazole-4-carbonyl)-2,3,3a,4,10,10a-hexahydro-1H,7H-dipyrrolo[3,4-b:3′,4′-f][1,4,5]oxathiazocine-8-carboxamide 5,5-dioxide]	< 1000
Cc1cc(NC(=O)c2c3c(cn2C)S(=O)(=O)N[C@H]2CN(C(=O)c4cnon4)C[C@H]2CO3)ccc1F [Example E105, (3aR,10aR)—N-(4-fluoro-3-methylphenyl)-7-methyl-2-(1,2,5-oxadiazole-3-carbonyl)-2,3,3a,4,10,10a-hexahydro-1H,7H-dipyrrolo[3,4-b:3′,4′-f][1,4,5]oxathiazocine-8-carboxamide 5,5-dioxide]	< 1000
Cn1cc2c(c1C(=O)Nc1cc(F)c(F)c(F)c1)OC[C@@H]1CN(C(=O)c3cocn3)C[C@@H]1NS2(=O)=O [Example E106, (3aR,10aR)-7-methyl-2-(oxazole-4-carbonyl)-N-(3,4,5-trifluorophenyl)-2,3,3a,4,10,10a-hexahydro-1H,7H-dipyrrolo[3,4-b:3′,4′-f][1,4,5]oxathiazocine-8-carboxamide 5,5-dioxide]	< 1000
Cc1nnc(C(=O)N2C[C@H]3COc4c(cn(C)c4C(=O)Nc4ccc(F)c(C)c4)S(=O)(=O)N[C@H]3C2)s1 [Example E107, (3aR,10aR)—N-(4-fluoro-3-methylphenyl)-7-methyl-2-(5-methyl-1,3,4-thiadiazole-2-carbonyl)-2,3,3a,4,10,10a-hexahydro-1H,7H-dipyrrolo[3,4-b:3′,4′-f][1,4,5]oxathiazocine-8-carboxamide 5,5-dioxide]	< 1000
Cc1cc(NC(=O)c2c3c(cn2C)S(=O)(=O)N[C@H]2CN(C(=O)C4COC4)C[C@H]2CO3)ccc1F [Example E108, (3aR,10aR)—N-(4-fluoro-3-methylphenyl)-7-methyl-2-(oxetane-3-carbonyl)-2,3,3a,4,10,10a-hexahydro-1H,7H-dipyrrolo[3,4-b:3′,4′-f][1,4,5]oxathiazocine-8-carboxamide 5,5-dioxide]	< 1000
Cc1cc(NC(=O)c2c3c(cn2C)S(=O)(=O)N[C@H]2CN(C(=O)C45CC(CO4)C5)C[C@H]2CO3)ccc1F [Example E109, (3aR,10aR)-2-(2-oxabicyclo[2.1.1]hexane-1-carbonyl)-N-(4-fluoro-3-methylphenyl)-7-methyl-2,3,3a,4,10,10a-hexahydro-1H,7H-dipyrrolo[3,4-b:3′,4′-f][1,4,5]oxathiazocine-8-carboxamide 5,5-dioxide]	< 1000
Cc1cc(NC(=O)c2c3c(cn2C)S(=O)(=O)N[C@H]2CN(C(=O)C4CCO4)C[C@H]2CO3)ccc1F (stereo partly drawn) [Example E110, (3aR,10aR)—N-(4-fluoro-3-methylphenyl)-7-methyl-2-(oxetane-2-carbonyl)-2,3,3a,4,10,10a-hexahydro-1H,7H-dipyrrolo[3,4-b:3′,4′-f][1,4,5]oxathiazocine-8-carboxamide 5,5-dioxide]	< 1000
Cc1cc(NC(=O)c2c3c(cn2C)S(=O)(=O)N[C@H]2CN(C(=O)C4(C)CCCO4)C[C@H]2CO3)ccc1F (stereo partly drawn) [Example E111, (3aR,10aR)—N-(4-fluoro-3-methylphenyl)-7-methyl-2-(2-methyltetrahydrofuran-2-carbonyl)-2,3,3a,4,10,10a-hexahydro-1H,7H-dipyrrolo[3,4-b:3′,4′-f][1,4,5]oxathiazocine-8-carboxamide 5,5-dioxide]	< 1000
Cc1nc(C(=O)N2C[C@H]3COc4c(cn(C)c4C(=O)Nc4ccc(F)c(C)c4)S(=O)(=O)N[C@H]3C2)co1 [Example E112, (3aR,10aR)—N-(4-fluoro-3-methylphenyl)-7-methyl-2-(2-methyloxazole-4-carbonyl)-2,3,3a,4,10,10a-hexahydro-1H,7H-dipyrrolo[3,4-b:3′,4′-f][1,4,5]oxathiazocine-8-carboxamide 5,5-dioxide]	< 1000
Cc1cc(NC(=O)c2c3c(cn2C)S(=O)(=O)N[C@H]2CN(C(=O)c4ncoc4C)C[C@H]2CO3)ccc1F [Example E113, (3aR,10aR)—N-(4-fluoro-3-methylphenyl)-7-methyl-2-(5-methyloxazole-4-carbonyl)-2,3,3a,4,10,10a-hexahydro-1H,7H-dipyrrolo[3,4-b:3′,4′-f][1,4,5]oxathiazocine-8-carboxamide 5,5-dioxide]	< 1000
Cc1nc(C(=O)N2C[C@H]3COc4c(cn(C)c4C(=O)Nc4ccc(F)c(C)c4)S(=O)(=O)N[C@H]3C2)c(C)o1 [Example E114, (3aR,10aR)-2-(2,5-dimethyloxazole-4-carbonyl)-N-(4-fluoro-3-methylphenyl)-7-methyl-2,3,3a,4,10,10a-hexahydro-1H,7H-dipyrrolo[3,4-b:3′,4′-f][1,4,5]oxathiazocine-8-carboxamide 5,5-dioxide]	< 1000
Cc1noc(N2C[C@H]3COc4c(cn(C)c4C(=O)Nc4ccc(F)c(C)c4)S(=O)(=O)N[C@H]3C2)n1 [Example E115, (3aR,10aR)—N-(4-fluoro-3-methylphenyl)-7-methyl-2-(3-methyl-1,2,4-oxadiazol-5-yl)-2,3,3a,4,10,10a-hexahydro-1H,7H-dipyrrolo[3,4-b:3′,4′-f][1,4,5]oxathiazocine-8-carboxamide 5,5-dioxide]	< 1000
Cc1noc(N2C[C@H]3COc4c(cn(C)c4C(=O)Nc4ccc(F)c(Cl)c4)S(=O)(=O)N[C@H]3C2)n1 [Example E116, (3aR,10aR)—N-(3-chloro-4-fluorophenyl)-7-methyl-2-(3-methyl-1,2,4-oxadiazol-5-yl)-2,3,3a,4,10,10a-hexahydro-1H,7H-dipyrrolo[3,4-b:3′,4′-f][1,4,5]oxathiazocine-8-carboxamide 5,5-dioxide]	< 1000
